Test results reported in patent publication US20070128217A1 (priority 2003, published 2007).

Experiments:
[1] = tested on: antibodies in sera from SARS patients (sera 1a, 1b, 2, 6, 37, 62, London, SARS-yellow, SARS-green); format: binding, human; parameters: Binding of serum 6 to linear peptides of protein X1 of SARS-CoV Urbani / Binding of serum 37 to linear peptides of protein X1 of SARS-CoV Urbani / Binding of serum 6 to looped/cyclic peptide (PEPSCAN-ELISA) / Binding of serum 37 to looped/cyclic peptide (PEPSCAN-ELISA) / Binding of serum 37 to looped/cyclic peptides of protein X1 of SARS-CoV Urbani / Binding of serum 6 to linear peptides of protein X2 / Binding of serum 37 to linear peptides of protein X2 / Binding of serum 37 to looped/cyclic peptides of protein X2 of SARS-CoV Urbani / Binding of serum 6 to linear peptides of protein M of SARS-CoV Urbani / Binding of serum 37 to linear peptides of protein M of SARS-CoV Urbani / Binding of serum 6 to looped/cyclic peptides of protein M of SARS-CoV Urbani / Binding of serum 37 to looped/cyclic peptides of protein M of SARS-CoV Urbani / Binding of serum 6 to linear peptides of protein X3 of SARS-CoV Urbani / Binding of serum 37 to linear peptides of protein X3 of SARS-CoV Urbani / Binding of serum 37 to looped/cyclic peptides of protein X3 of SARS-CoV Urbani / Binding of serum 6 to linear peptides of protein X4 of SARS-CoV Urbani / Binding of serum 37 to linear peptides of protein X4 of SARS-CoV Urbani / Binding of serum 37 to looped/cyclic peptides of protein X4 of SARS-CoV Urbani / Binding of serum 6 to linear peptides of protein X5 of SARS-CoV Urbani / Binding of serum 37 to linear peptides of protein X5 of SARS-CoV Urbani / Binding of serum 37 to looped/cyclic peptides of protein X5 of SARS-CoV Urbani / Binding of serum 6 to linear peptides of protein N of SARS-CoV Urbani / Binding of serum 37 to linear peptides of protein N of SARS-CoV Urbani / Binding of serum 6 to linear peptide (PEPSCAN-ELISA) / Binding of serum 1a to looped/cyclic peptides of protein N of SARS-CoV Urbani / Binding of serum 1b to looped/cyclic peptides of protein N of SARS-CoV Urbani / Binding of serum 2 to looped/cyclic peptides of protein N of SARS-CoV Urbani / Binding of serum 6 to looped/cyclic peptides of protein N of SARS-CoV Urbani / Binding of serum 37 to looped/cyclic peptides of protein N of SARS-CoV Urbani / Binding of serum 62 to looped/cyclic peptides of protein N of SARS-CoV Urbani / Binding of serum London to looped/cyclic peptides of protein N of SARS-CoV Urbani / Binding of serum SARS-green to looped/cyclic peptides of protein N of SARS-CoV Urbani: unit not given here
[2] = tested on: control sera (pooled serum of ten healthy LUMC hospital workers; commercial negative donor pooled serum from the Dutch bloodbank); format: binding, human; parameters: Binding of Control serum LUMC to linear peptides / Binding of Control serum Blood-bank to linear peptides / Binding of Control serum LUMC to looped peptides / Binding of Control Serum Blood-Bank to Looped peptides / Binding of Control serum LUMC to linear peptides of the protein M of SARS-CoV Urbani / Binding of Control serum Blood-bank to linear peptides of the protein M of SARS-CoV Urbani / Binding of Control serum LUMC to looped peptides of the protein M of SARS-CoV Urbani / Binding of Control Serum Blood-Bank to Looped peptides of the protein M of SARS-CoV Urbani: unit not given here
[3] = tested on: rabbit serum obtained by immunizing a rabbit with the SARS-CoV strain Frankfurt 1; format: binding; parameters: Binding of a rabbit serum to linear peptides / Binding of a rabbit serum to looped peptides / Rabbit serum linear peptides / Rabbit serum looped peptides / Binding of a rabbit serum to linear peptides of protein N of SARS-CoV Urbani (Rabbit serum linear peptides) / Binding of a rabbit serum to looped/cyclic peptides of protein N of SARS-CoV Urbani (Rabbit serum looped peptides): unit not given here

**Q.** IIKLVFLWLLWPVTL was tested. Which “Binding of serum 1a to linear peptides of protein M of SARS-CoV Urbani” value [1] did it give?
**A.** 0.7

**Q.** What about the “Binding of serum 1a to looped/cyclic peptides of protein M of SARS-CoV Urbani” value [1] of the same sequence?
**A.** 0.6

**Q.** And the “Binding of serum 1b to linear peptides of protein M of SARS-CoV Urbani” value [1]?
**A.** 0.5

**Q.** And the “Binding of serum 1b to looped/cyclic peptides of protein M of SARS-CoV Urbani” value [1]?
**A.** 0.7

**Q.** What about the “Binding of serum 2 to linear peptides of protein M of SARS-CoV Urbani” value [1] of the same sequence?
**A.** 0.4

**Q.** What about the “Binding of serum 2 to looped/cyclic peptides of protein M of SARS-CoV Urbani” value [1] of the same sequence?
**A.** 0.5

**Q.** And the “Binding of serum 6 to linear peptides of protein M of SARS-CoV Urbani” value [1]?
**A.** 0.4

**Q.** What about the “Binding of serum 6 to looped/cyclic peptides of protein M of SARS-CoV Urbani” value [1] of the same sequence?
**A.** 0.5

**Q.** What about the “Binding of serum 37 to linear peptides of protein M of SARS-CoV Urbani” value [1] of the same sequence?
**A.** 0.3

**Q.** And the “Binding of serum 37 to looped/cyclic peptides of protein M of SARS-CoV Urbani” value [1]?
**A.** 0.5

**Q.** What about the “Binding of serum 62 to linear peptides of protein M of SARS-CoV Urbani” value [1] of the same sequence?
**A.** 0.3

**Q.** And the “Binding of serum 62 to looped/cyclic peptides of protein M of SARS-CoV Urbani” value [1]?
**A.** 0.6

**Q.** And the “Binding of serum London to linear peptides of protein M of SARS-CoV Urbani” value [1]?
**A.** 0.3

**Q.** And the “Binding of serum London to looped/cyclic peptides of protein M of SARS-CoV Urbani” value [1]?
**A.** 0.2

**Q.** And the “Binding of serum SARS-green to linear peptides of protein M of SARS-CoV Urbani” value [1]?
**A.** 0.4

**Q.** And the “Binding of serum SARS-green to looped/cyclic peptides of protein M of SARS-CoV Urbani” value [1]?
**A.** 0.3

**Q.** What about the “Binding of serum SARS-yellow to linear peptides of protein M of SARS-CoV Urbani” value [1] of the same sequence?
**A.** 0.2

**Q.** What about the “Binding of serum SARS-yellow to looped/cyclic peptides of protein M of SARS-CoV Urbani” value [1] of the same sequence?
**A.** 0.4

**Q.** What about the “Binding of Control Serum Blood-Bank to Looped peptides of the protein M of SARS-CoV Urbani” value [2] of the same sequence?
**A.** 0.7

**Q.** And the “Binding of Control serum Blood-bank to linear peptides of the protein M of SARS-CoV Urbani” value [2]?
**A.** 0.5

**Q.** What about the “Binding of Control serum LUMC to linear peptides of the protein M of SARS-CoV Urbani” value [2] of the same sequence?
**A.** 0.6

**Q.** And the “Binding of Control serum LUMC to looped peptides of the protein M of SARS-CoV Urbani” value [2]?
**A.** 0.6

**Q.** What about the “Rabbit serum linear peptides” value [3] of the same sequence?
**A.** 0.1

**Q.** What about the “Rabbit serum looped peptides” value [3] of the same sequence?
**A.** 0.0

**Q.** What does the source list for IHTIDGSSGVANPAM?
**A.** Binding of serum 1a to linear peptides of protein X1 of SARS-CoV Urbani [1]: 0.7; Binding of serum 1a to looped/cyclic peptides of protein X1 of SARS-CoV Urbani [1]: 0.5; Binding of serum 1b to linear peptides of protein X1 of SARS-CoV Urbani [1]: 0.7; Binding of serum 1b to looped/cyclic peptides of protein X1 of SARS-CoV Urbani [1]: 0.4; Binding of serum 2 to linear peptides of protein X1 of SARS-CoV Urbani [1]: 0.8; Binding of serum 2 to looped/cyclic peptides of protein X1 of SARS-CoV Urbani [1]: 0.3; Binding of serum 6 to linear peptides of protein X1 of SARS-CoV Urbani [1]: 0.5; Binding of serum 6 to looped/cyclic peptides of protein X1 of SARS-CoV Urbani [1]: 0.2; Binding of serum 37 to linear peptides of protein X1 of SARS-CoV Urbani [1]: 0.7; Binding of serum 37 to looped/cyclic peptides of protein X1 of SARS-CoV Urbani [1]: 0.3; Binding of serum 62 to linear peptides of protein X1 of SARS-CoV Urbani [1]: 0.8; Binding of serum 62 to looped/cyclic peptides of protein X1 of SARS-CoV Urbani [1]: 0.3; Binding of serum London to linear peptides of protein X1 of SARS-CoV Urbani [1]: 0.5; Binding of serum London to looped/cyclic peptides of protein X1 of SARS-CoV Urbani [1]: 0.2; Binding of serum SARS-green to linear peptides of protein X1 of SARS-CoV Urbani [1]: 0.5; Binding of serum SARS-green to looped/cyclic peptides of protein X1 of SARS-CoV Urbani [1]: 0.3; Binding of serum SARS-yellow to linear peptides of protein X1 of SARS-CoV Urbani [1]: 0.6; Binding of serum SARS-yellow to looped/cyclic peptides of protein X1 of SARS-CoV Urbani [1]: 0.2; Binding of Control Serum Blood-Bank to Looped peptides [2]: 0.4; Binding of Control serum Blood-bank to linear peptides [2]: 0.7; Binding of Control serum LUMC to linear peptides [2]: 0.8; Binding of Control serum LUMC to looped peptides [2]: 0.4; Binding of a rabbit serum to linear peptides [3]: 0.1; Binding of a rabbit serum to looped peptides [3]: 0.5

**Q.** With KEITVATSRTLSYYK as the sequence, how does the “Binding of serum 1a to linear peptides of protein M of SARS-CoV Urbani” value [1] read?
**A.** 0.7

**Q.** What about the “Binding of serum 1a to looped/cyclic peptides of protein M of SARS-CoV Urbani” value [1] of the same sequence?
**A.** 0.6

**Q.** And the “Binding of serum 1b to linear peptides of protein M of SARS-CoV Urbani” value [1]?
**A.** 0.6

**Q.** And the “Binding of serum 1b to looped/cyclic peptides of protein M of SARS-CoV Urbani” value [1]?
**A.** 0.5

**Q.** And the “Binding of serum 2 to linear peptides of protein M of SARS-CoV Urbani” value [1]?
**A.** 0.6

**Q.** What about the “Binding of serum 2 to looped/cyclic peptides of protein M of SARS-CoV Urbani” value [1] of the same sequence?
**A.** 0.8

**Q.** What about the “Binding of serum 6 to linear peptides of protein M of SARS-CoV Urbani” value [1] of the same sequence?
**A.** 0.0

**Q.** What about the “Binding of serum 6 to looped/cyclic peptides of protein M of SARS-CoV Urbani” value [1] of the same sequence?
**A.** 1.3

**Q.** And the “Binding of serum 37 to linear peptides of protein M of SARS-CoV Urbani” value [1]?
**A.** 0.5

**Q.** And the “Binding of serum 37 to looped/cyclic peptides of protein M of SARS-CoV Urbani” value [1]?
**A.** 0.6

**Q.** And the “Binding of serum 62 to linear peptides of protein M of SARS-CoV Urbani” value [1]?
**A.** 0.6

**Q.** What about the “Binding of serum 62 to looped/cyclic peptides of protein M of SARS-CoV Urbani” value [1] of the same sequence?
**A.** 0.5

**Q.** What about the “Binding of serum London to linear peptides of protein M of SARS-CoV Urbani” value [1] of the same sequence?
**A.** 0.3

**Q.** And the “Binding of serum London to looped/cyclic peptides of protein M of SARS-CoV Urbani” value [1]?
**A.** 0.4

**Q.** And the “Binding of serum SARS-green to linear peptides of protein M of SARS-CoV Urbani” value [1]?
**A.** 0.4

**Q.** And the “Binding of serum SARS-green to looped/cyclic peptides of protein M of SARS-CoV Urbani” value [1]?
**A.** 0.2

**Q.** What about the “Binding of serum SARS-yellow to linear peptides of protein M of SARS-CoV Urbani” value [1] of the same sequence?
**A.** 0.2

**Q.** And the “Binding of serum SARS-yellow to looped/cyclic peptides of protein M of SARS-CoV Urbani” value [1]?
**A.** 0.5

**Q.** And the “Binding of Control Serum Blood-Bank to Looped peptides of the protein M of SARS-CoV Urbani” value [2]?
**A.** 0.7

**Q.** And the “Binding of Control serum Blood-bank to linear peptides of the protein M of SARS-CoV Urbani” value [2]?
**A.** 0.8

**Q.** And the “Binding of Control serum LUMC to linear peptides of the protein M of SARS-CoV Urbani” value [2]?
**A.** 0.6

**Q.** And the “Binding of Control serum LUMC to looped peptides of the protein M of SARS-CoV Urbani” value [2]?
**A.** 0.7

**Q.** And the “Rabbit serum linear peptides” value [3]?
**A.** 0.4

**Q.** And the “Rabbit serum looped peptides” value [3]?
**A.** 0.5
